In PubChem BioAssay AID248 (DTP/NCI, 2004):
Where “and” joins values, the source holds several entries; their conditions need not be identical. Identical values can stand only once. Inconclusive results and toxic doses are left out. Rule as the data show it: active = T/C of 150% or more; inactive = T/C below 125%.

Tested on: L1210 leukemia ip in BDF1 mice, survival T/C
Assay: NCI In Vivo Anticancer Drug Screen. Data for tumor model L1210 Leukemia (intraperitoneal) in B6D2F1 (BDF1) mice
Settings: endpoint: mean survival time, higher = longer survival
Summary of the method: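 Read-out is survival time, reported as the treated-group measurement over the vehicle-control measurement.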

[1] = dose: 25.0 mg/kg/injection, schedule: Q01DX009 (ip), vehicle: saline with Tween-80
[2] = dose: 50.0 mg/kg/injection, schedule: Q01DX009 (ip), vehicle: saline with Tween-80
[3] = dose: 100.0 mg/kg/injection, schedule: Q01DX001 (ip), vehicle: saline
[4] = dose: 100.0 mg/kg/injection, schedule: Q01DX009 (ip), vehicle: saline with Tween-80
[5] = dose: 200.0 mg/kg/injection, schedule: Q01DX001 (ip), vehicle: saline
[6] = dose: 100.0 mg/kg/injection, schedule: Q01DX009 (ip), vehicle: Klucel (hydroxypropylcellulose) (HPC)
[7] = dose: 100.0 mg/kg/injection, schedule: Q04DX002 (ip), vehicle: Klucel (hydroxypropylcellulose) (HPC)
[8] = dose: 200.0 mg/kg/injection, schedule: Q01DX009 (ip), vehicle: Klucel (hydroxypropylcellulose) (HPC)
[9] = dose: 200.0 mg/kg/injection, schedule: Q04DX002 (ip), vehicle: Klucel (hydroxypropylcellulose) (HPC)
[10] = dose: 400.0 mg/kg/injection, schedule: Q04DX002 (ip), vehicle: Klucel (hydroxypropylcellulose) (HPC)
[11] = dose: 100.0 mg/kg/injection, schedule: Q04DX003 (ip), vehicle: saline with Tween-80
[12] = dose: 200.0 mg/kg/injection, schedule: Q04DX003 (ip), vehicle: saline with Tween-80
[13] = dose: 400.0 mg/kg/injection, schedule: Q04DX003 (ip), vehicle: saline with Tween-80
[14] = dose: 400.0 mg/kg/injection, schedule: Q01DX001 (ip), vehicle: saline
[15] = dose: 100.0 mg/kg/injection, schedule: Q01DX001 (ip), vehicle: Klucel (hydroxypropylcellulose) (HPC)
[16] = dose: 200.0 mg/kg/injection, schedule: Q01DX001 (ip), vehicle: Klucel (hydroxypropylcellulose) (HPC)
[17] = dose: 400.0 mg/kg/injection, schedule: Q01DX001 (ip), vehicle: Klucel (hydroxypropylcellulose) (HPC)
[18] = dose: 100.0 mg/kg/injection, schedule: Q04DX003 (ip), vehicle: Klucel (hydroxypropylcellulose) (HPC)
[19] = dose: 200.0 mg/kg/injection, schedule: Q04DX003 (ip), vehicle: Klucel (hydroxypropylcellulose) (HPC)
[20] = dose: 400.0 mg/kg/injection, schedule: Q04DX003 (ip), vehicle: Klucel (hydroxypropylcellulose) (HPC)

Measured: T/C

CCOC(=O)C(=N\Nc1ccc(C)cc1C)/C(C)=N\NC(N)=S
inactive: dose: 75.0 mg/kg/injection, schedule: Q01DX001 (ip), vehicle: saline 105 % of control

Cc1ccc(S(=O)(=O)/C=C(\I)c2ccc([N+](=O)[O-])cc2)cc1
inactive: [1] 96 % of control | [2] 91 % of control | [3] 97 % of control | [4] 98 % of control | [5] 95 % of control

O=C(CCNC(=O)c1ccccc1)Oc1ccccc1
inactive: dose: 100.0 mg/kg/injection, schedule: Q04DX003 (ip), vehicle: saline 93 % of control | dose: 200.0 mg/kg/injection, schedule: Q04DX003 (ip), vehicle: saline 95 % of control | dose: 400.0 mg/kg/injection, schedule: Q04DX003 (ip), vehicle: saline 92 % of control

O=C(Nc1cc(C(F)(F)F)ccc1Cl)Oc1ccc(F)cc1Cl
inactive: [6] 97 % of control and 101 % of control | [7] 95 % of control and 100 % of control | [8] 101 % of control and 108 % of control | [9] 100 % of control and 104 % of control | dose: 400.0 mg/kg/injection, schedule: Q01DX009 (ip), vehicle: Klucel (hydroxypropylcellulose) (HPC) 108 % of control and 89 % of control | [10] 103 % of control and 110 % of control

O/N=C(\c1ccccc1)C(c1ccccc1)C(Cl)(Cl)Cl (centres undefined)
inactive: [11] 86 % of control | [12] 88 % of control | [13] 88 % of control

CCOC(=O)C1Nc2ccc3ccccc3c2NC1=O (centres undefined)
inactive: dose: 50.0 mg/kg/injection, schedule: Q04DX002 (ip), vehicle: Klucel (hydroxypropylcellulose) (HPC) 93 % of control | [7] 97 % of control | [9] 90 % of control

CCC(=O)C(CCN1CCC(n2c(=O)[nH]c3ccccc32)CC1)(c1ccccc1)c1ccccc1
inactive: dose: 0.2 mg/kg/injection, schedule: Q01DX009 (ip), vehicle: saline with Tween-80 90 % of control | dose: 0.4 mg/kg/injection, schedule: Q01DX009 (ip), vehicle: saline with Tween-80 89 % of control | dose: 0.78 mg/kg/injection, schedule: Q01DX009 (ip), vehicle: saline with Tween-80 88 % of control | dose: 0.8 mg/kg/injection, schedule: Q01DX009 (ip), vehicle: saline with Tween-80 104 % of control | dose: 3.13 mg/kg/injection, schedule: Q01DX009 (ip), vehicle: saline with Tween-80 98 % of control | dose: 6.25 mg/kg/injection, schedule: Q01DX009 (ip), vehicle: saline with Tween-80 93 % of control and 89 % of control | dose: 12.5 mg/kg/injection, schedule: Q01DX009 (ip), vehicle: saline with Tween-80 95 % of control | [1] 90 % of control | [2] 86 % of control | [4] 96 % of control and 92 % of control

OCc1ccc(O)cn1
inactive: [3] 97 % of control | [5] 87 % of control | [14] 94 % of control

CC(=O)CC(=O)Nc1cccc(Cl)c1
inactive: dose: 15.0 mg/kg/injection, schedule: Q01DX001 (ip), vehicle: carboxymethylcellulose (CMC) 108 % of control | dose: 30.0 mg/kg/injection, schedule: Q01DX001 (ip), vehicle: carboxymethylcellulose (CMC) 108 % of control

c1ccc(-c2n[nH]c(-c3ccccc3)c2-c2ccccc2)cc1
inactive: [11] 92 % of control | [12] 100 % of control | [13] 95 % of control

Clc1ccc(N/N=C(\Cc2ccccn2)c2ccccc2)cc1
inactive: dose: 100.0 mg/kg/injection, schedule: Q04DX003 (sc), vehicle: olive oil, sesame oil, peanut oil 101 % of control | dose: 200.0 mg/kg/injection, schedule: Q04DX003 (sc), vehicle: olive oil, sesame oil, peanut oil 110 % of control | dose: 400.0 mg/kg/injection, schedule: Q04DX003 (sc), vehicle: olive oil, sesame oil, peanut oil 103 % of control

CCCC(N)C(=O)O (centres undefined)
inactive: [15] 106 % of control | [16] 103 % of control | [17] 95 % of control

Cc1ccc(NC(=O)/C=N/O)cc1C
inactive: [3] 104 % of control | [5] 102 % of control | [14] 90 % of control

CCOC(=O)CNc1cccc(C(F)(F)F)c1
inactive: dose: 100.0 mg/kg/injection, schedule: Q01DX009 (ip), vehicle: carboxymethylcellulose (CMC) 98 % of control | [7] 100 % of control and 105 % of control | dose: 200.0 mg/kg/injection, schedule: Q01DX009 (ip), vehicle: carboxymethylcellulose (CMC) 93 % of control | [9] 109 % of control and 114 % of control | [10] 98 % of control

N/C(=N\N=C\c1cccc2ccccc12)N/N=C/c1cccc2ccccc12
inactive: dose: 15.0 mg/kg/injection, schedule: Q01DX Z (ip), vehicle: methylcellulose (MC) 101 % of control | dose: 30.0 mg/kg/injection, schedule: Q01DX Z (ip), vehicle: methylcellulose (MC) 89 % of control | dose: 60.0 mg/kg/injection, schedule: Q01DX Z (ip), vehicle: methylcellulose (MC) 102 % of control | dose: 60.0 mg/kg/injection, schedule: Q01DX Z (oral), vehicle: methylcellulose (MC) 87 % of control | dose: 120.0 mg/kg/injection, schedule: Q01DX Z (ip), vehicle: methylcellulose (MC) 97 % of control | dose: 120.0 mg/kg/injection, schedule: Q01DX Z (oral), vehicle: methylcellulose (MC) 110 % of control | dose: 180.0 mg/kg/injection, schedule: Q01DX Z (oral), vehicle: methylcellulose (MC) 101 % of control | dose: 240.0 mg/kg/injection, schedule: Q01DX Z (ip), vehicle: methylcellulose (MC) 97 % of control | dose: 240.0 mg/kg/injection, schedule: Q01DX Z (oral), vehicle: methylcellulose (MC) 102 % of control | dose: 360.0 mg/kg/injection, schedule: Q01DX Z (ip), vehicle: methylcellulose (MC) 91 % of control | dose: 360.0 mg/kg/injection, schedule: Q01DX Z (oral), vehicle: methylcellulose (MC) 96 % of control | dose: 480.0 mg/kg/injection, schedule: Q01DX Z (oral), vehicle: methylcellulose (MC) 93 % of control | dose: 540.0 mg/kg/injection, schedule: Q01DX Z (oral), vehicle: methylcellulose (MC) 96 % of control

CCOC(=O)CNc1cccc(C)c1
inactive: [7] 100 % of control | [9] 110 % of control | [10] 107 % of control

CCCCCCCCCC(=O)NC(=S)Nc1ccc(Br)cc1
inactive: [15] 93 % of control | [6] 93 % of control and 98 % of control | [7] 98 % of control and 91 % of control | [18] 92 % of control | [16] 91 % of control | [8] 91 % of control | [9] 96 % of control and 88 % of control | [19] 94 % of control | [17] 94 % of control | [10] 96 % of control and 88 % of control | [20] 102 % of control

COc1cc2c(cc1O)CCCCC2=O
inactive: dose: 50.0 mg/kg/injection, schedule: Q01DX009 (ip), vehicle: saline 92 % of control | dose: 100.0 mg/kg/injection, schedule: Q01DX009 (ip), vehicle: saline 104 % of control | [18] 97 % of control | dose: 200.0 mg/kg/injection, schedule: Q01DX009 (ip), vehicle: saline 119 % of control | [19] 102 % of control | [20] 94 % of control

CCN(CCO)c1ccc(N=Nc2ccc([N+](=O)[O-])cc2)cc1
inactive: [15] 105 % of control | [16] 96 % of control | [17] 100 % of control
